Experimental data: patent US20240307308A1, “PORPHYRIN NANOVESICLE WITH FATTY ACID CONJUGATE” (priority 2021, published 2024)
“Also recorded” adds a separate entry of the source.

Tests used:
[1] = tested on: KB cells; test: Intracellular uptake by fluorescence microscopy; type: cell-based; details: 1 mM (1000 μM) free EDTA with 5 μM PS
Method: Fluorescence microscopy method was firstly used to track particles' intracellular uptake on KB cells that cultured in RPMI-1640 media with 10% FBS. Briefly, 5×10^4 cells/well were seeded in eight-well chamber slides 24 h prior to incubation. Cells were incubated with NPS and PS at porphyrin concentration of 1 μM for 4 h at 37° C., rinsed with PBS for 3 times and then re-culture in fresh media. Olympus FV1000 laser fluorescence scanning microscopy (Olympus, Tokyo, Japan) was conducted to monitor the porphyrin fluorescence change of the cells with time (immediately and at 3 h and 18 h after removing the incubation medium). The fluorescence microscopy method was also used to examine eNPS uptake in KB epithelium cells versus normal fibroblast cells (NFB)

[2] = doses of 1000 mg/kg; cited from earlier work

| Molecule | Effect of co-incubated free EDTA on PS uptake [1] | Acute toxicity [2] |
| --- | --- | --- |
| O=C(O)CN(CCN(CC(=O)O)CC(=O)O)CC(=O)O [free EDTA, Ethylenediaminetetraacetic acid] | negligible enhancement; also recorded: negligible effect | – |
| pyropheophorbide-lipid [porphyrin-lipid] | – | minimal acute toxicities |
